In PubChem BioAssay AID1259408 (Genetic Toxicology Data Bank (GENE-TOX), 2018):
Activity calls are given as the source filed them. The rule behind the calls is not given here.

System: GENE-TOX genotoxicity assays, various organisms and cells
Experiment: GENE-TOX mutagenicity studies
Conditions: for call: Assay Type: In vivo carcinogenicity studies
[1] = Species/Cell Type: Rodents, Sex: Male, Assay Type: Dominant lethal test, Assay Code: DLT-, Evaluation Type: Evaluation A (Pre-1980)
[2] = Species/Cell Type: Salmonella typhimurium (one or more of the five standard strains: TA98, TA100, TA1535, TA1537, and TA1538), Assay Type: Histidine reverse gene mutation, Ames assay, Assay Code: SAL+*, Activation: With metabolic activation, Evaluation Type: Evaluation A (Pre-1980)
[3] = Species/Cell Type: Saccharomyces cerevisiae, Assay Type: Mitotic recombination or gene conversion, Assay Code: YEH-, Evaluation Type: Evaluation A (Pre-1980)
[4] = Species/Cell Type: Salmonella typhimurium (one or more of the five standard strains: TA98, TA100, TA1535, TA1537, and TA1538), Assay Type: Histidine reverse gene mutation, Ames assay, Assay Code: SALT, Evaluation Type: Evaluation A (Pre-1980)
[5] = Species/Cell Type: Chinese hamster lung (V79) cells, Assay Type: Forward gene mutation at the HPRT or ouabain locus, Assay Code: V79+, Evaluation Type: Evaluation A (Pre-1980)
[6] = Species/Cell Type: Escherichia coli polA (W3119 vs P3478), Assay Type: Rec-assay, DNA effects (bacterial DNA repair), Assay Code: RE1T, Evaluation Type: Evaluation A (Pre-1980)
[7] = Species/Cell Type: Human diploid fibroblasts, Assay Type: Unscheduled DNA synthesis (UDS) in vitro, DNA effects, Assay Code: UDH-, Evaluation Type: Evaluation A (Pre-1980)
[8] = Species/Cell Type: Nonhuman, Assay Type: Sister-chromatid exchange (SCE) in vitro, Assay Code: SC2+D, Dose Response: With dose response, Evaluation Type: Evaluation B (Post-1980)

Compound: NNC(=O)COc1ccc(Br)cc1CN1CCCCC1
- mutagenic call (Species/Cell Type: Saccharomyces cerevisiae, Assay Type: Reverse gene mutation, Assay Code: YERT, Evaluation Type: Evaluation A (Pre-1980)): no conclusion

Compound: C=C(Cl)Cl
- mutagenic call (Species/Cell Type: Mammalian polychromatic erythrocytes, Assay Type: Micronucleus test, chromosome aberrations, Assay Code: MNT-, Evaluation Type: Evaluation B (Post-1980)): inactive; negative
- call (Species/Cell Type: Nonhuman, Assay Code: CCG+L, Evaluation Type: Evaluation A (Pre-1980)): active; positive
- mutagenic call [1]: inactive; negative
- mutagenic call [2]: active; positive
- mutagenic call (Species/Cell Type: Tradescantia species, Assay Type: Gene mutation, Assay Code: TRM+D, Dose Response: With dose response, Evaluation Type: Evaluation A (Pre-1980)): active; positive

Compound: Clc1ccc(Oc2c(Cl)cc(Cl)cc2Cl)cc1
- mutagenic call (Species/Cell Type: Saccharomyces cerevisiae, Assay Type: Forward gene mutation, Assay Code: YEF-, Evaluation Type: Evaluation A (Pre-1980)): inactive; negative
- mutagenic call (Species/Cell Type: Saccharomyces cerevisiae, Assay Type: Mitotic recombination or gene conversion, Assay Code: YEC-, Evaluation Type: Evaluation A (Pre-1980)): inactive; negative
- mutagenic call [3]: inactive; negative

Compound: CO[C@@H]1[C@@H](OC(N)=O)[C@@H](O)[C@H](Oc2ccc3c(O)c(NC(=O)c4ccc(O)c(CC=C(C)C)c4)c(=O)oc3c2C)OC1(C)C
- mutagenic call (Species/Cell Type: Nonhuman, Assay Type: Sister-chromatid exchange (SCE) in vitro, Assay Code: SC2+, Evaluation Type: Evaluation B (Post-1980)): active; positive

Compound: Nc1ccc(N)c(N)c1
- mutagenic call (Species/Cell Type: Mouse, Sex: Male, Assay Type: Sperm morphology, Assay Code: SPI-, Evaluation Type: Evaluation A (Pre-1980)): inactive; negative
- mutagenic call [4]: no conclusion

Compound: Nc1nc2c(ncn2[C@H]2C[C@H](O)[C@@H](CO)O2)c(=O)[nH]1
- mutagenic call (Species/Cell Type: Glycine max (soybean), Assay Type: Gene mutation, Assay Code: GLM-, Evaluation Type: Evaluation A (Pre-1980)): inactive; negative

Compound: O=C(c1ccc2c(c1)OCO2)C1CO1 (stereo unspecified)
- mutagenic call (Species/Cell Type: Salmonella typhimurium (one or more of the five standard strains: TA98, TA100, TA1535, TA1537, and TA1538), Assay Type: Histidine reverse gene mutation, Ames assay, Assay Code: SAL+, Evaluation Type: Evaluation A (Pre-1980)): active; positive

Compound: O=NN1CCC(=O)CC1
- mutagenic call (Species/Cell Type: Drosophila melanogaster, Assay Type: Sex-linked recessive lethal gene mutation, Assay Code: SRLT, Evaluation Type: Evaluation A (Pre-1980)): no conclusion
- mutagenic call [2]: active; positive

Compound: Cc1ccc2cc3c(c4c2c1CC4)[C@@H](O)[C@@H](O)c1ccccc1-3
- mutagenic call [5]: active; positive
- mutagenic call (Species/Cell Type: Mouse prostate cells, Assay Type: Cell transformation, Assay Code: CTMT, Evaluation Type: Evaluation A (Pre-1980)): no conclusion

Compound: CCSc1nc2c(c(=O)n(C)c(=O)n2C)n1C
- mutagenic call (Species/Cell Type: Allium cepa, Assay Type: Chromosome aberrations, Assay Code: ALC+D, Dose Response: With dose response, Evaluation Type: Evaluation A (Pre-1980)): active; positive

Compound: COc1ccc(C(c2ccc(OC)cc2)C(Cl)(Cl)Cl)cc1
- mutagenic call (Species/Cell Type: Bacillus subtilis (H17 vs M45), Assay Type: Rec-assay, spot test, DNA effects (bacterial DNA repair), Assay Code: REWT, Evaluation Type: Evaluation A (Pre-1980)): no conclusion
- mutagenic call (Species/Cell Type: Drosophila melanogaster, Assay Type: Sex-linked recessive lethal gene mutation, Assay Code: SRL-, Evaluation Type: Evaluation A (Pre-1980)): inactive; negative
- mutagenic call (Species/Cell Type: Escherichia coli WP2 UVRA, Assay Type: Tryptophan reverse gene mutation, Assay Code: WPU-*, Activation: With metabolic activation, Evaluation Type: Evaluation A (Pre-1980)): inactive; negative
- mutagenic call [6]: no conclusion
- mutagenic call (Species/Cell Type: Fischer rat embryo (RLV/1706) cells, Assay Type: Cell transformation, viral enhanced, Assay Code: CTR-, Evaluation Type: Evaluation A (Pre-1980)): inactive; negative
- mutagenic call [7]: inactive; negative
- mutagenic call (Species/Cell Type: Mouse (BALB/c-3T3) cells, Assay Type: Cell transformation, Assay Code: CTB+D, Dose Response: With dose response, Evaluation Type: Evaluation A (Pre-1980)): active; positive
- call (Species/Cell Type: Nonhuman, Assay Code: CCG-, Evaluation Type: Evaluation A (Pre-1980)): inactive; negative
- mutagenic call [3]: inactive; negative
- mutagenic call (Species/Cell Type: Salmonella typhimurium (one or more of the five standard strains: TA98, TA100, TA1535, TA1537, and TA1538), Assay Type: Histidine reverse gene mutation, Ames assay, Assay Code: SAL-, Evaluation Type: Evaluation A (Pre-1980)): inactive; negative
- mutagenic call (Species/Cell Type: Syrian hamster embryo (SHE) cells, Assay Type: Cell transformation, clonal assay, Assay Code: CTC-, Evaluation Type: Evaluation A (Pre-1980)): inactive; negative

Compound: Nc1ccccc1N
- mutagenic call (Species/Cell Type: Allium cepa, Assay Type: Chromosome aberrations, Assay Code: ALC+, Evaluation Type: Evaluation A (Pre-1980)): active; positive
- mutagenic call (Species/Cell Type: Mammalian polychromatic erythrocytes, Assay Type: Micronucleus test, chromosome aberrations, Assay Code: MNT+, Evaluation Type: Evaluation B (Post-1980)): active; positive
- mutagenic call (Species/Cell Type: Neurospora crassa, Assay Type: Aneuploidy, chromosome aberrations, Assay Code: NEN-, Evaluation Type: Evaluation A (Pre-1980)): inactive; negative
- mutagenic call [1]: inactive; negative

Compound: CC(C)CBr
- mutagenic call [6]: no conclusion

Compound: CC(CO)OS(C)(=O)=O (stereo unspecified)
- mutagenic call (Species/Cell Type: Hordeum vulgare (barley), Assay Type: Chromosome aberrations, Assay Code: HOC+D, Dose Response: With dose response, Evaluation Type: Evaluation A (Pre-1980)): active; positive

Compound: CN(C)C(=S)SC(=S)N(C)C
- mutagenic call (Species/Cell Type: Mammalian polychromatic erythrocytes, Assay Type: Micronucleus test, chromosome aberrations, Assay Code: MNT+U, Dose Response: Unconfirmed positive response, Evaluation Type: Evaluation B (Post-1980)): active; positive

Compound: CCc1ccccc1O
- mutagenic call (Species/Cell Type: Human lymphocytes, Assay Type: Sister-chromatid exchange (SCE) in vitro, Assay Code: SCLT, Evaluation Type: Evaluation B (Post-1980)): no conclusion
- mutagenic call (Species/Cell Type: Human, Assay Type: Sister-chromatid exchange (SCE) in vitro, Assay Code: SC1T, Evaluation Type: Evaluation B (Post-1980)): no conclusion

Compound: NC(=O)NO
- mutagenic call (Species/Cell Type: Chinese hamster lung (V79) cells, Assay Type: Forward gene mutation at the HPRT or ouabain locus, Assay Code: V79-, Evaluation Type: Evaluation A (Pre-1980)): inactive; negative
- mutagenic call (Species/Cell Type: Escherichia coli polA (W3119 vs P3478), Assay Type: Rec-assay, DNA effects (bacterial DNA repair), Assay Code: RE1+, Evaluation Type: Evaluation A (Pre-1980)): active; positive
- mutagenic call (Species/Cell Type: Human lymphocytes or leukocytes, Assay Type: Chromosome aberrations in vitro, Assay Code: CY7+, Evaluation Type: Evaluation A (Pre-1980)): active; positive
- mutagenic call (Species/Cell Type: Mammalian polychromatic erythrocytes, Assay Type: Micronucleus test, chromosome aberrations, Assay Code: MNTT, Evaluation Type: Evaluation A (Pre-1980)): no conclusion
- mutagenic call (Species/Cell Type: Mouse (BALB/c-3T3) cells, Assay Type: Cell transformation, Assay Code: CTB-, Evaluation Type: Evaluation A (Pre-1980)): inactive; negative
- mutagenic call (Species/Cell Type: Mouse, Sex: Male, Assay Type: Sperm morphology, Assay Code: SPI+, Evaluation Type: Evaluation A (Pre-1980)): active; positive
- call (Species/Cell Type: Nonhuman, Assay Code: CCGT, Evaluation Type: Evaluation A (Pre-1980)): no conclusion
- mutagenic call [8]: active; positive
- mutagenic call (Species/Cell Type: Nonhuman, Assay Type: Sister-chromatid exchange (SCE) in vitro, Assay Code: SC2-, Evaluation Type: Evaluation A (Pre-1980)): inactive; negative
- mutagenic call (Species/Cell Type: Saccharomyces cerevisiae, Assay Type: Mitotic recombination or gene conversion, Assay Code: YEC+, Evaluation Type: Evaluation A (Pre-1980)): active; positive
- mutagenic call (Species/Cell Type: Syrian hamster embryo (SA7/SHE) cells, Assay Type: Cell transformation, viral enhanced, Assay Code: CT7+, Evaluation Type: Evaluation A (Pre-1980)): active; positive
- mutagenic call (Species/Cell Type: Tradescantia species, Assay Type: Chromosome aberrations, Assay Code: TRC+, Evaluation Type: Evaluation A (Pre-1980)): active; positive

Compound: CCN(CC)CCNc1ccc(O)c2c1C(=O)c1ccccc1S2=O (stereo unspecified)
- mutagenic call (Species/Cell Type: Fischer rat embryo (RLV/1706) cells, Assay Type: Cell transformation, viral enhanced, Assay Code: CTR+, Evaluation Type: Evaluation A (Pre-1980)): active; positive

Compound: COc1cccc2c1C(=O)c1c(O)c3c(c(O)c1C2=O)C[C@@](O)(C(C)=O)C[C@@H]3O[C@@H]1C[C@@H](N(C)C)[C@@H](O)[C@@H](C)O1
- mutagenic call [4]: no conclusion

Compound: CC(C)(O)CCc1ccc(O)c2c(=O)c3c(O)c4c(cc3oc12)O[C@H]1OC=C[C@@]41O
- mutagenic call [2]: active; positive

Compound: CC(=O)Nc1ccc(-c2ccccc2)cc1
- mutagenic call [7]: inactive; negative

Compound: CC(C)C(O)(C(=O)OCC1=CCN2CC[C@H](O)[C@H]12)[C@H](C)O (stereo partly specified)
- mutagenic call (Species/Cell Type: Drosophila melanogaster, Assay Type: Sex-linked recessive lethal gene mutation, Assay Code: SRL+, Evaluation Type: Evaluation A (Pre-1980)): active; positive

Compound: O=[N+]([O-])O.O=[N+]([O-])O.[Cd+2]
- mutagenic call (Species/Cell Type: Nonhuman, Assay Type: Sister-chromatid exchange (SCE) in vitro, Assay Code: SC2-, Evaluation Type: Evaluation B (Post-1980)): inactive; negative

Compound: CCOP(=S)(OCC)Oc1ccc(Cl)cc1Cl
- mutagenic call (Species/Cell Type: Human, Assay Type: Sister-chromatid exchange (SCE) in vitro, Assay Code: SC1+D, Dose Response: With dose response, Evaluation Type: Evaluation B (Post-1980)): active; positive

Compound: O[C@@H]1[C@@H]2O[C@@H]2c2cc3ccc4cccc5ccc(c2[C@H]1O)c3c45
- mutagenic call [5]: active; positive
- mutagenic call [8]: active; positive

Compound: CC/C(=C(\c1ccccc1)c1ccc(OCCN(C)C)cc1)c1ccccc1
- mutagenic call (Species/Cell Type: Human, Sex: Male, Assay Type: Sperm morphology, Assay Code: SPHT, Evaluation Type: Evaluation A (Pre-1980)): no conclusion
